For seven compounds, inhibition and IC50 results are on record in ChEMBL document CHEMBL1131740, “N-substituted 4-(5-indolyl)benzoic acids. Synthesis and evaluation of steroid 5alpha-reductase type I and II inhibitory activity” (Bioorg Med Chem Lett, 1999).

In experiment [1] the target is T1, 3-oxo-5-alpha-steroid 4-dehydrogenase 2 (Homo sapiens) (UniProt P31213).
T1 sequence (whole entry): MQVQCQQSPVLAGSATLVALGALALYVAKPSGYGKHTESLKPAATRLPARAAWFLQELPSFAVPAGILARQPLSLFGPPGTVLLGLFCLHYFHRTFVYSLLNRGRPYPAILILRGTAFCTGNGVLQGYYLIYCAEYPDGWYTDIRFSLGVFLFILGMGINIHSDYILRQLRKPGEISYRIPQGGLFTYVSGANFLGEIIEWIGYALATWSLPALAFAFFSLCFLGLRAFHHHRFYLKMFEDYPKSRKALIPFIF
Nature of the experiment: Inhibition against human Steroid 5-alpha-reductase type 2 at 10 uM concentration using 18213 3H testosterone 210 nM as substrate.

Experiment [2] addresses T2, 3-oxo-5-alpha-steroid 4-dehydrogenase 1 (Rattus norvegicus) (UniProt P24008).
T2 sequence (whole entry): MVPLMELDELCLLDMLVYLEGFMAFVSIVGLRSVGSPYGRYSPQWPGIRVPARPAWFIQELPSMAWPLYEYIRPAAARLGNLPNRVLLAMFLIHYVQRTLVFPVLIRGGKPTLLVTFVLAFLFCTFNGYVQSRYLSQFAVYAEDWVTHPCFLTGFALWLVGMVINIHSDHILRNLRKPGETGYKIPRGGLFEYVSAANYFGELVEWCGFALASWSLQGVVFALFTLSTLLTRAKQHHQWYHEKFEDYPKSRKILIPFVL
Nature of the experiment: Inhibition against rat Steroid 5-alpha-reductase type I at 10 uM concentration using 18213 3H testosterone 210 nM as substrate.

In experiment [3] the target is T3, 3-oxo-5-alpha-steroid 4-dehydrogenase 1 (Homo sapiens) (UniProt P18405).
T3 sequence (whole entry): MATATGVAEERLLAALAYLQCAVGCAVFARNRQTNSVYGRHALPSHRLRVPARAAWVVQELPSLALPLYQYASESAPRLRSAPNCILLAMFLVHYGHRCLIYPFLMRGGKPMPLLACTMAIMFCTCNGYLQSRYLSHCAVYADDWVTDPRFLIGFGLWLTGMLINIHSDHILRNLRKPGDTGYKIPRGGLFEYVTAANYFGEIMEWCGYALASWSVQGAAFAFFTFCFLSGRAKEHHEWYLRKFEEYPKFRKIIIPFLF
As to the kind of experiment: (§1) Inhibition against human Steroid 5-alpha-reductase type I in DU 145 cell culture at 10 uM concentration using 3H androstenedione 5 nM as substrate. The class given is cell-based.

In experiment [4] the target is T3, 3-oxo-5-alpha-steroid 4-dehydrogenase 1 (Homo sapiens). The description is as §1.
Experiment [5] has as its target T1, 3-oxo-5-alpha-steroid 4-dehydrogenase 2 (Homo sapiens). As to the kind of experiment: Inhibition against human 5-alpha-reductase type 2 at 10 uM concentration using 18213 3H testosterone 210 nM as substrate.
Experiment [6] addresses T4, 3-oxo-5-alpha-steroid 4-dehydrogenase 2 (Homo sapiens, UniProt P31213).
T4 sequence (P31213 whole entry): T1 sequence (whole entry)
As to the kind of experiment: Inhibitory activity against human 5-alpha-reductase type 2 using 18213 3H testosterone 210 nM as substrate.

Experiment [7] deals with T5, 3-oxo-5-alpha-steroid 4-dehydrogenase 1 (Homo sapiens, UniProt P18405).
T5 sequence (P18405 whole entry): T3 sequence (whole entry)
Nature of the experiment: Inhibitory concentration against human Steroid 5-alpha-reductase type I in DU 145 cell culture using 3H androstenedione 5 nM as substrate. The experiment is classed as cell-based.

Experiment [8] concerns the target T4, 3-oxo-5-alpha-steroid 4-dehydrogenase 2. Nature of the experiment: Inhibitory activity against human Steroid 5-alpha-reductase type 2 using 18213 3H testosterone 210 nM as substrate.
The target in experiment [9] is T6, 3-oxo-5-alpha-steroid 4-dehydrogenase 1 (Rattus norvegicus, UniProt P24008).
T6 sequence (P24008 whole entry): T2 sequence (whole entry)
As to the kind of experiment: Inhibitory activity against rat Steroid 5-alpha-reductase type I using 18213 3H testosterone 210 nM as substrate.

The target in experiment [10] is T1, 3-oxo-5-alpha-steroid 4-dehydrogenase 2 (Homo sapiens). As to the kind of experiment: Percentage inhibition against human Steroid 5-alpha-reductase type 2 at 10 uM concentration using 18213 3H testosterone 210 nM as substrate.
Experiment [11] deals with T2, 3-oxo-5-alpha-steroid 4-dehydrogenase 1 (Rattus norvegicus). As to the kind of experiment: Inhibition against rat Steroid 5-alpha-reductase type I at 10 uM concentration using 18213 3H testosterone 210 nM as substrate; No inhibition.
Experiment [12] deals with T3, 3-oxo-5-alpha-steroid 4-dehydrogenase 1 (Homo sapiens). As to the kind of experiment: Inhibition against human 5-alpha-reductase type 1 Steroid 5-alpha-reductase type I culture at 10 uM concentration using 3H androstenedione 5 nM as substrate.
Experiment [13] addresses T6, 3-oxo-5-alpha-steroid 4-dehydrogenase 1. Nature of the experiment: Inhibition against rat Steroid 5-alpha-reductase type I at 10 uM concentration using 18213 3H testosterone 210 nM as substrate: No inhibition.

Calls of active or inactive are those of the source. The rule behind the calls is not given here.

What is called inhibition is the share of the control response that was lost under treatment. With `CCCCn1ccc2cc(-c3ccc(C(=O)O)cc3)ccc21`, the inhibition in experiment [1] came out at 24%; in [2], 17%; in experiment [3], 72%.

By IC50 is commonly meant the concentration needed to halve the response being measured. With `O=C(O)c1ccc(-c2ccc3c(ccn3Cc3ccccc3)c2)cc1`, the inhibition in [4] came to 67%; in experiment [5], 60%; in [2], 12%. Moreover, the IC50 in experiment [6] was 6.2 µM.

With `CC(C)(C)NC(=O)[C@H]1CC[C@H]2[C@@H]3CC=C4C=C(C(=O)O)CC[C@]4(C)[C@H]3CC[C@]12C` [EPRISTERIDE], the IC50 in experiment [7] was 1.1 µM; in [8] it was 0.003 µM; in [9] it was 0.045 µM.

As for `O=C(O)c1ccc(-c2ccc3c(ccn3C3CCCCC3)c2)cc1`, the inhibition in experiment [10] was 36%. Moreover, the inhibition result in experiment [11] was “inactive”.

Consider `O=C(O)c1ccc(-c2ccc3c(ccn3CC3CCCCC3)c2)cc1`, for which the inhibition in experiment [10] worked out at 50%; in [12] it was 81%. The figures for the IC50 in experiment [7] and in [13] were 2.1 µM and “Not Active”, respectively.

In the case of `O=C(O)c1ccc(-c2ccc3c(ccn3C(c3ccccc3)c3ccccc3)c2)cc1`, the inhibition in [1] was 40%; in [2] it was 26%; in [3], 81%. Besides, the IC50 in [7] came to 2.78 µM.

Consider `CCCC(CCC)n1ccc2cc(-c3ccc(C(=O)O)cc3)ccc21`, for which the inhibition came out at 10% in experiment [1], 43% in [2] and 75% in [3]. The IC50 in experiment [7] was 3.2 µM.
